According to PMC9983021, “Novel GluN2B-Selective NMDA Receptor Negative Allosteric Modulator Possesses Intrinsic Analgesic Properties and Enhances Analgesia of Morphine in a Rodent Tail Flick Pain Model” (ACS Chemical Neuroscience, 2023):
Like-named read-outs stand apart in the source and are kept apart here.

Columns and labels:
Assay in all cases: Radioligand binding assay (NIMH PDSP)
Alpha1A (α1A) = molecular target: T1, Alpha1A (α1A) (Homo sapiens, UniProt P35348)
T1 sequence (P35348 1-466): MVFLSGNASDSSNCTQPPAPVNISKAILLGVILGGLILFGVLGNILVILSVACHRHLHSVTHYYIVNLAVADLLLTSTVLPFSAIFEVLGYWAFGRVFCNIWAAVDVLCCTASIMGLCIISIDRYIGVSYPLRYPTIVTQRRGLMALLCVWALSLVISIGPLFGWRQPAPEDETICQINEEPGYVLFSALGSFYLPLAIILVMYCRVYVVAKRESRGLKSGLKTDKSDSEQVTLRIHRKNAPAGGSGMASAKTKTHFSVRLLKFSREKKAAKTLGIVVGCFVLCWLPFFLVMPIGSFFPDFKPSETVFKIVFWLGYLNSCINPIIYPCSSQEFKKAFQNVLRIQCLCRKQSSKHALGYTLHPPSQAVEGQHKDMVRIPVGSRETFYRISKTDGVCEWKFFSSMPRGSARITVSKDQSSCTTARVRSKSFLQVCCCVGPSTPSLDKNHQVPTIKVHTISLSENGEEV
Procedure: (§1) Compound EU93-108 was also tested for inhibition of binding of probes to a range of GPCRs and other targets (Table 4 and Supporting Table S4). […] EU93-108 produced significant displacement of binding probes for the 5-HT2 receptors and α-1-adrenergic receptors, as well as D3, H1, and σ1 receptors. Concentration–response binding competition curves for these targets were used to determine Ki values (Table 4). Given that the brain concentration of EU93-108 achieved 30 min post i.p. injection is 18 μM (Figure 6), the doses that yield our desired antinociceptive effects may engage some of the receptors listed in Table 4.
(§2) Conventional competition and saturation radioligand binding assays were used to determine the affinities of reference standards and EU93-108. Experiments were carried out by the NIMH Psychoactive Drug Screening Program (PDSP) and were performed as previously described.[123]
(§3) The detailed experimental protocols for the radioligand assays are available on the NIMH PDSP website at https://pdsp.unc.edu/pdspweb/content/UNC-CH%20Protocol%20Book.pdf.
(§4) Receptor Mean % Receptor Mean % Receptor Mean %
(§5) Inhibition Inhibition Inhibition
(§6) Supplemental Table S4. Off-Target Actions of EU93-108: Primary GPCR Screen. Cloned human molecular targets were individually expressed and submitted to molecular target-based screening with initial screens performed at a final concentration of 10 µM in quadruplicate. Complete protocols for the assays have been previously published (Besnard J et al. 2012). Where inhibition greater than 50% was measured, secondary screens were performed wherein Ki values were calculated (see Table 4).

Alpha1D (α1D) = molecular target: T2, Alpha1D (α1D) (Homo sapiens, UniProt P25100)
T2 sequence (P25100 1-572): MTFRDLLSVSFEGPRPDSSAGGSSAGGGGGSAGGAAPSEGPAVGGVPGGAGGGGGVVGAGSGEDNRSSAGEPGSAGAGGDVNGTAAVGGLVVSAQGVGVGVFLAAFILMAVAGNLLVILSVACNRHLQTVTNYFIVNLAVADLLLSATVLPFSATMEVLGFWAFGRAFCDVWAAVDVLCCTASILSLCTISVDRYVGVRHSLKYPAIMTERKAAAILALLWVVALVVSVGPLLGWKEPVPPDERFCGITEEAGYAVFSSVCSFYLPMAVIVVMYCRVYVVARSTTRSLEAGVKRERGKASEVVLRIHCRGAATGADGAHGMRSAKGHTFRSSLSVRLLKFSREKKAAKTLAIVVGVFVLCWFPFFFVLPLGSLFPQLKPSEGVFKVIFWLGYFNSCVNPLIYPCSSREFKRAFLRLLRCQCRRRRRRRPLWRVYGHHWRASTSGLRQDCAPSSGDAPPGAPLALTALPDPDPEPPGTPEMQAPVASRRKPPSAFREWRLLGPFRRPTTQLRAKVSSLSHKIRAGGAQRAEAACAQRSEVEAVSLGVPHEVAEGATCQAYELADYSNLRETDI
Procedure: as §1, §2, §3, §4, §5, §6

5-HT2B = 5-HT2B (Homo sapiens, UniProt P41595)
5-HT2B, sequence (P41595 whole entry): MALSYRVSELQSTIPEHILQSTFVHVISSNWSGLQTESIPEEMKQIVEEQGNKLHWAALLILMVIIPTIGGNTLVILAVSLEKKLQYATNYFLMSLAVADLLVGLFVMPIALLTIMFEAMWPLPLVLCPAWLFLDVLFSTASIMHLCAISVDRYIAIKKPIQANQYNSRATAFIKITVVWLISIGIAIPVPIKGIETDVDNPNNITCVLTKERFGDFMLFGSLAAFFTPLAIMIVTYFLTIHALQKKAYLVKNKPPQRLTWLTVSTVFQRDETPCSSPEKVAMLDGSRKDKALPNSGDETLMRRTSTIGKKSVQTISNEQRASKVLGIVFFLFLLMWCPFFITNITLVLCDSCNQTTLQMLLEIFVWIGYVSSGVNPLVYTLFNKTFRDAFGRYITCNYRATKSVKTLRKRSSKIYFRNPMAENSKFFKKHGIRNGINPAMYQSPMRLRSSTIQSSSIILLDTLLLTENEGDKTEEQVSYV
Procedure: as §1, §2, §3, §4, §5, §6

5-HT2A = 5-HT2A (Homo sapiens, UniProt P28223)
5-HT2A, sequence (P28223 whole entry): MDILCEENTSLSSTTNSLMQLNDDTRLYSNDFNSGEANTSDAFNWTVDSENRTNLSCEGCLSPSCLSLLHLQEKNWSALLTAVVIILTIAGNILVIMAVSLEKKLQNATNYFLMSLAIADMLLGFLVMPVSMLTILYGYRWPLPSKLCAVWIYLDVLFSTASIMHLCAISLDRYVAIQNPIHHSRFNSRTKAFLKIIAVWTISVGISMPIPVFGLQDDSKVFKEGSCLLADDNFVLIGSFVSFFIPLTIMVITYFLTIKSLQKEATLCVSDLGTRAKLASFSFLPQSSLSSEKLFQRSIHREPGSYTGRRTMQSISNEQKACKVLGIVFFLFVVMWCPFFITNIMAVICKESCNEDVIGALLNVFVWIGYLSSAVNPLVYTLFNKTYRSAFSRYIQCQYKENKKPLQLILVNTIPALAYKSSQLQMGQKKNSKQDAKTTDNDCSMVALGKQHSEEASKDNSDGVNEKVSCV
Procedure: as §1, §2, §3, §4, §5, §6

H1 = H1 (Homo sapiens, UniProt P35367); settings: for Ki: secondary screen, binding competition curve
H1, sequence (P35367 whole entry): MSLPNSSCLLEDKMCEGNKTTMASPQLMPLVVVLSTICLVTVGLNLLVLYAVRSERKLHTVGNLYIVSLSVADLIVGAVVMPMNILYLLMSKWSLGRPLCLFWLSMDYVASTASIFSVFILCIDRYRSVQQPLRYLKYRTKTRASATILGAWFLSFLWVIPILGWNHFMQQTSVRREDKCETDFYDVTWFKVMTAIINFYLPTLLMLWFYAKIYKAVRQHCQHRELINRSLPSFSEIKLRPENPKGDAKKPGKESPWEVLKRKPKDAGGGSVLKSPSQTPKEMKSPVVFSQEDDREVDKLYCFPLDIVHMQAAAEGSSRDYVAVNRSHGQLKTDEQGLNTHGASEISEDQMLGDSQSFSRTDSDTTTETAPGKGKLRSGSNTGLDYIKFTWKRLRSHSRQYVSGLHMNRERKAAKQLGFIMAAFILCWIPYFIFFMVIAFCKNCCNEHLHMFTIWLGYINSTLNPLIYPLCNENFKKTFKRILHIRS
Procedure: as §1, §2, §3, §4, §5, §6

Alpha2C (α2C) = molecular target: T3, Alpha2C (α2C) (Homo sapiens, UniProt P18825)
T3 sequence (P18825 1-462): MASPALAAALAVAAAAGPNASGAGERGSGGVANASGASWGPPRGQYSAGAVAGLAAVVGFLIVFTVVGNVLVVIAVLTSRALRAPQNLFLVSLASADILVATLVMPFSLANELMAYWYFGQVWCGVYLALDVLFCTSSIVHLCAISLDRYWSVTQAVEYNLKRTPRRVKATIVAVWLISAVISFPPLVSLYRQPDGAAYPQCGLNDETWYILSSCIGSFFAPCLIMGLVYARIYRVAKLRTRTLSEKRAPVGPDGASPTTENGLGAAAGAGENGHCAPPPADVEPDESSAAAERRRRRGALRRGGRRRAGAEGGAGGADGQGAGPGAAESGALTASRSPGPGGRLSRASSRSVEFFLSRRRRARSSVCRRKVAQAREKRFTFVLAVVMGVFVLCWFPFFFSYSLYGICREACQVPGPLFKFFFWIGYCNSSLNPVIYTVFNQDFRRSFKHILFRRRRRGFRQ
Procedure: as §1, §2, §3, §4, §5, §6

[1] = primary screen, 10 µM, quadruplicate
[2] = ratio of Ki to the IC50 for EU93-108 (555 nM) at GluN2B
[3] = secondary screen, binding competition curve

In the case of `CS(=O)(=O)Nc1ccc(OC[C@@H](O)CN2CCN(c3ccc(F)c(F)c3)CC2)cc1` [EU93-108, (S)-N-(4-(3-(4-(3,4-Difluorophenyl)piperazin-1-yl)-2-hydroxypropoxy)phenyl)methanesulfonamide], the inhibition at 10 µM (Alpha1A (α1A); [1]) is reported as 86.3%, the “Ki/IC50 of EU93-108” value (Alpha1A (α1A); [2]) is reported as 0.31 and the Ki (Alpha1A (α1A); [3]) is reported as 0.17 µM. The inhibition at 10 µM (Alpha1D (α1D); [1]) was 76.7%, the “Ki/IC50 of EU93-108” value (Alpha1D (α1D); [2]) was 0.65 and the Ki (Alpha1D (α1D); [3]) was 0.359 µM. The inhibition at 10 µM (5-HT2B; [1]) was 67.4%, the “Ki/IC50 of EU93-108” value (5-HT2B; [2]) was 1.75 and the Ki (5-HT2B; [3]) was 0.976 µM. The inhibition at 10 µM (5-HT2A; [1]) was 83.8%, the “Ki/IC50 of EU93-108” value (5-HT2A; [2]) was 0.88 and the Ki (5-HT2A; [3]) was 0.49 µM. The inhibition at 10 µM (H1; [1]) was 76.9%, the “Ki/IC50 of EU93-108” value (H1; [2]) was 0.46 and the Ki (H1; read-out: Ki) was 0.254 µM. For the same compound, the Ki (H1; read-out: log(Ki) (converted)) was 0.257 µM, the inhibition at 10 µM (Alpha2C (α2C); [1]) was 63% and the “Ki/IC50 of EU93-108” value (Alpha2C (α2C); [2]) was 1.55. It also gave a Ki (Alpha2C (α2C); [3]) of 0.862 µM.
